Patent publication US8431715B2, “Thiazole compound (as PPARδ) ligand and pharmaceutical, cosmetic and health food comprised thereof” (Seoul National University Industry Foundation, priority 2007, dated 2013)

Molecular target: T1, PPARδ (Homo sapiens, UniProt Q03181)
T1 sequence (Q03181 1-441): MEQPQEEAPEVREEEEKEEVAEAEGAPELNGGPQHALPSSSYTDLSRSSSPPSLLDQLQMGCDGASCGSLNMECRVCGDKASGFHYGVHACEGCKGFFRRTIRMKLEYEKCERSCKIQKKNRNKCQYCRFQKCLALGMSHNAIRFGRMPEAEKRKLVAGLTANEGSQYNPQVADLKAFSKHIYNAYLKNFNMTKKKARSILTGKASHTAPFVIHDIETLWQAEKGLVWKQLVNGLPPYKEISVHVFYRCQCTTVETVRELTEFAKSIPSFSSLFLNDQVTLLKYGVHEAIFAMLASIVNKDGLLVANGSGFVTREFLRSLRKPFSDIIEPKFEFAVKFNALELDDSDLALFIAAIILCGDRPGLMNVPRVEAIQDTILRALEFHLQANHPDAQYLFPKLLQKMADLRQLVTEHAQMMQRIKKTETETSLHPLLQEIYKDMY
Assay: Transfection assay (luciferase reporter) in CV-1 cells, PPARδ
Format: cell-based
Parameters: Full length PPARs plasmid DNA, reporter DNA confirming PPARs activity owing to its luciferase activity; expressed in transfected cells; host or cells: CV-1 cells
Method: The PPARδ activities of the R-form compound represented by formula 1 of the present invention and the S-form compound represented by formula 2 were measured by transfection assay. In addition, the selectivity to PPAR subtypes, PPARα and PPARγ, was examined. Cytotoxicity was tested by MTT assay and in vivo activity and toxicity was investigated by animal experiment using mice.
CV-1 cells were used in this assay. The cells were inoculated in a 96-well plate containing DMEM supplemented with 10% FBS, DBS (delipidated) and 1% penicillin/streptomycin and cultured in a 37 °C, 5% CO2 incubator. The experiment was performed according to the steps of inoculation, transfection, sample treatment and confirmation. Particularly, CV-1 cells were inoculated in a 96 well-plate (5000 cells/well), followed by transfection 24 hours later. Full length PPARs plasmid DNA, reporter DNA confirming PPARs activity owing to its luciferase activity, β-galactosidase DNA providing information on transfection efficiency, and transfection reagent were used for the transfection. The compounds of formula 1 and formula 2 were dissolved in dimethylsulfoxide (DMSO), which were treated to the cells via media at different concentrations. After culturing the cells in the incubator for 24 hours, the cells were lysed by using lysis buffer. Luciferase activity and β-galactosidaseactivity were measured with Luminometer and a microplate reader. The obtained values of luciferase were modified by the values of β-galactosidase. A graph was made with those values and EC50 was calculated.

## Cc1cc(S[C@H](Cc2ccccc2)c2sc(-c3ccc(C(F)(F)F)cc3)nc2C)ccc1OCC(=O)O (racemic) [formula 1]
CV-1 cells, 24 hours treatment
  EC50: 0.6 nM
PPARδ
  activity of R-isomer compared with S-isomer (formula 2): 10 times
PPARδ versus PPARα and PPARγ
  selectivity to PPARα and PPARγ: 100,000 times
